The text below walks through data of US5432192A, “Tricyclic compounds and method for treating allergic diseases” (Hokuriku Seiyaku Co., Ltd., priority 1991, dated 1995).

In series [1] the target is T1, Histamine dose-response in isolated ileum from male Hartley guinea-pigs (Cavia porcellus, UniProt P31389).
T1 construct: The ileum was isolated from male Hartley guinea-pigs; from tissue; host or cells: isolated ileum of male Hartley guinea-pigs
The experiment in a line: Anti-histaminic effect, isolated guinea-pig ileum (KB by Furchgott method). Also on record: species or system guinea-pig (male Hartley). The note with it: dissociation constant KB (M) of antagonist vs histamine; test drug applied 30 minutes before; 28° C.; read-out: -Log KB (anti-histaminic effect) (converted). On the procedure: (§1) The ileum was isolated from male Hartley guinea-pigs (5 to 8 weeks of age). The preparation was suspended in a bath containing Locke-Ringer nutritional solution (NaCl: 154 mM, KCl: 5.6 mM, CaCl2 .2H2 O: 2.2 mM, MgCl2.6H2 O: 2.1 mM, NaHCO3 : 5.9 mM, glucose: 2.8 mM) bubbled with 95% O2 +5% CO2 mixed gas at 28° C., and then 0.5 g weight was loaded and tention through isotonic transducer was recorded using a recorder. Histamine was cumulatively applied 3 times at intervals of 40 minutes, and the dose-response curve of the third experiment, for which a test drug was applied 30 minutes before the experiment, was compared with the result of the second experiment as a reference. Dissociation constants KB (M) of antagonists were calculated according to the method of Furchgott. From the results shown in Table 1, it is apparent that the compounds of the present invention have excellent anti-histaminic activities.

Series [2] has as its system PCA reaction in passively sensitized male Wistar rats. The experiment in a line: Anti-allergic effect (Inhibitory effect on PCA reaction). Particulars: Rattus norvegicus, po, 1 h, 1 mg/kg orally, antigen challenge after one hour, read-out: Inhibition rate (%) of PCA reaction. It is filed as in vivo, rat (male Wistar). On the procedure:
0.1 ml of anti-dinitrophenylated ascaris extract (DNP-As) rat IgE serum was injected intracutaneously to the back of male Wistar rats (6 weeks of age). After 48 hours, a solution of 1% Evans blue in physiological saline containing 1 mg of an antigen (DNP-As) was administered from caudal vein. After 30 minutes, the animals were exsanguinated and dyes in blue spots were extracted with 1N KOH, and then the amounts of the dyes were measured by absorbance at 620 nm. After the passively sensitized rats described above were fasted for 16 to 18 hours, 1 mg/kg of each test compound was administered orally to the rats, and then the rats were challenged with antigen after one hour. The amounts of dyes in the test animals were compared with those of the control to obtain the inhibition rate (%) of PCA reaction.

Series [3] concerns the target T2, Acetylcholine dose-response in isolated ileum from male Hartley guinea-pigs (Cavia porcellus, UniProt H0W1Z3).
T2 construct: The ileum was isolated from male Hartley guinea-pigs; from tissue; host or cells: isolated ileum of male Hartley guinea-pigs
The experiment in a line: Anti-acetylcholinergic effect, isolated guinea-pig ileum (KB by Furchgott method). Set-up: species or system guinea-pig (male Hartley). Particulars: dissociation constant KB (M) of antagonist vs acetylcholine; test drug applied 30 minutes before; 28° C.; read-out: -Log KB (anti-acetylcholinergic effect) (converted). How it is done:
as §1, with “CaCl2.H2” for “CaCl2 .2H2”, “MgCl2. 6H2” for “MgCl2.6H2”, “Acetylcholine” for “Histamine”, “3,” for “1,”, “almost no anti-acetylcholinergic” for “excellent anti-histaminic”

For series [4] the following is noted: known adverse reactions, background art; cited from earlier work.

T1 sequence (P31389 whole entry): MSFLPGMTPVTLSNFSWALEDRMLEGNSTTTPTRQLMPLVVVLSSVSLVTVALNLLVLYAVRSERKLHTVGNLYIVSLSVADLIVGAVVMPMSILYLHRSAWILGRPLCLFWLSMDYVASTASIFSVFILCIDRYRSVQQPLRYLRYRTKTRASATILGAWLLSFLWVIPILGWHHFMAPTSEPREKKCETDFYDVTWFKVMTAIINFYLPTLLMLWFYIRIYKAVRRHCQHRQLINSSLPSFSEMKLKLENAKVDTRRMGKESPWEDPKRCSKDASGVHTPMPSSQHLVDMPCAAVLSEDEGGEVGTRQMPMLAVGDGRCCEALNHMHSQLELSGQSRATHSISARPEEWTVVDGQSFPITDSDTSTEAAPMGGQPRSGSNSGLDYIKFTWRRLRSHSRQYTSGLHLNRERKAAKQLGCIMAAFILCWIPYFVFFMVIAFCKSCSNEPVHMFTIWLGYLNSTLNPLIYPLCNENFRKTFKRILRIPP
T2 sequence (H0W1Z3 1-590): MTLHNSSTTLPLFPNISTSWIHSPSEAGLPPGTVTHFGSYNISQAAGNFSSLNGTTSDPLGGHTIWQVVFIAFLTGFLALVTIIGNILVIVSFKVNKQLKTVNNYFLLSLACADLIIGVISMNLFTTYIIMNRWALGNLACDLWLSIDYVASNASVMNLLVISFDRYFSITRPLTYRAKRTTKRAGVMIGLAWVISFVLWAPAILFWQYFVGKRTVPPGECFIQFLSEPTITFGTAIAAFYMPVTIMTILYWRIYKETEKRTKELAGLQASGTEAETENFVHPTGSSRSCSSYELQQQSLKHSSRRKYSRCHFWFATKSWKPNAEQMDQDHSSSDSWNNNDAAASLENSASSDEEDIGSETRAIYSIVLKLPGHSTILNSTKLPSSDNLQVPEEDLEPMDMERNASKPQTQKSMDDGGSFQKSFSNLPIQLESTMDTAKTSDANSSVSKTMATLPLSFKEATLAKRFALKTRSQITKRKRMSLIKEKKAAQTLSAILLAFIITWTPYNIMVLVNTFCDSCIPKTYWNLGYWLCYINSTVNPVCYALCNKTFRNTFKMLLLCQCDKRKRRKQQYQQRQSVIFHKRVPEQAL

For the molecule `CN(CCC=C1c2ccccc2C=Cc2ccccc21)CCCCCC(=O)O` [Example 18, 6-[N-[3-(5H-Dibenzo[a,d]cyclohepten-5-ylidene)propyl]-N-methylamino]hexanoic Acid], the figures for the antagonist equilibrium constant (Kb) in series [1] and in series [3] were 1.2e-08 M and 5.5e-07 M, respectively. Further, the inhibition at 1 mg/kg in series [2] came out at 50%.
As for `CN(C)CCC=C1c2ccccc2COc2ccccc21` [doxepin, Doxepin, reference compound], the inhibition at 1 mg/kg in series [2] came to 21%. Also, in series [3], the Kb is 5.89e-08 M. In addition, the adverse reactions result in series [4] is “sleepiness, thirst, and constipations”.
In the case of `CN(CCC=C1c2ccccc2COc2ccccc21)CCCCC(=O)O` [Example 22, 5-[N-[3-(Dibenz[b,e]oxepin-11(6H)-ylidene)propyl]-N-methylamino]valeric Acid], the figures for the antagonist dissociation constant (Kb) in series [1] and in series [3] were 4.37e-09 M and 1e-05 M, respectively. Further, the inhibition at 1 mg/kg in series [2] was 62%.
For `CN(CCC=C1c2ccccc2COc2ccccc21)CCC(=O)O` [Example 20, 3-[N-[3-(Dibenz[b,e]oxepin-11(6H)-ylidene)propyl]-N-methylamino]propionic Acid], in that order: 3.09e-09 M, 7.08e-06 M and 69%.
Turning to `CN(CCC=C1c2ccccc2COc2ccccc21)CC(=O)O` [Example 19, [N-[3-(Dibenz[b,e]oxepin-11(6H)-ylidene)propyl]-N-methylamino]acetic Acid], the values for the Kb in series [1] and in series [3] were 1.55e-08 M and 4.9e-05 M, respectively.
With `CN(C)CCC=C1c2ccccc2C=Cc2ccccc21` [cyclobenzaprine, Cyclobenzaprine, reference compound], in series [2], the inhibition at 1 mg/kg turned out to be 14%. Further, the Kb in series [3] was 7.59e-09 M. Besides, the adverse reactions result in series [4] is “sleepiness, dizziness, fatigue, thirst, nausea, constipation, and dyspepsia”.
On to `CN(CCC=C1c2ccccc2C=Cc2ccccc21)CCC(=O)O` [Example 14, 3-[N-[3-(5H-Dibenzo[a,d]cyclohepten-5-ylidene)propyl]-N-methylamino]propionic Acid], for which the antagonist dissociation constant (Kb) is 6.92e-09 M in series [1] and 1.51e-05 M in series [3]. Moreover, in series [2], the inhibition at 1 mg/kg stood at 72%.
Turning to `CN(CCC=C1c2ccccc2COc2ccccc21)CCCC(=O)O` [Example 21, 4-[N-[3-(Dibenz[b,e]oxepin-11(6H)-ylidene)propyl]-N-methylamino]butyric Acid], the antagonist equilibrium constant (Kb) in series [1] is 3.47e-09 M; in series [3], 7.24e-06 M.
In the same order, the values of `CN(CCC=C1c2ccccc2C=Cc2ccccc21)CC(=O)O` [Example 16, [N-[3-(5H-Dibenzo[a,d]cyclohepten-5-ylidene)propyl]-N-methylamino]acetic Acid] are 3.16e-08 M and 1.26e-05 M.
In the same order, the values of `CN(CCC=C1c2ccccc2C=Cc2ccccc21)CCCC(=O)O` [Example 15, 4-[N-[3-(5H-Dibenzo[a,d]cyclohepten-5-ylidene)propyl]-N-methylamino]butyricAcid] are 4.27e-09 M and 2.57e-06 M.
Take `CN(CCC=C1c2ccccc2COc2ccccc21)CCCCCC(=O)O` [Example 23, 6-[N-[3-(Dibenz[b,e]oxepin-11(6H)-ylidene)propyl]-N-methylamino]hexanoic Acid]: the values for the antagonist equilibrium constant (Kb) in series [1] and in series [3] were 7.76e-09 M and 3.16e-06 M, respectively.
Take `CN(CCC=C1c2ccccc2C=Cc2ccccc21)CCCCC(=O)O` [Example 17, 5-[N-[3-(5H-Dibenzo[a,d]cyclohepten-5-ylidene)propyl]-N-methylamino]valericAcid]: the Kb in series [1] was 6.17e-09 M; in series [3] it was 9.12e-07 M. Besides, the inhibition at 1 mg/kg in series [2] is 72%.

In general, Kb refers to the affinity of an antagonist, worked out from how it opposes an agonist. Usually inhibition stands for the relative decrease from the control value, in per cent.
